Measured values as given in US12221445B2, “Crystalline salts of 5-methyl-(6S)-tetrahydrofolic acid and amino ethyl esters” (MERCK PATENT GMBH, priority 2018, dated 2025).
Where a name gives a salt, the structure may show the parent alone.

How the values were obtained:
[1] = Kinetic solubility in water (one minute agitation, gravimetric evaluation); conditions: for amount dissolved within one minute in 2.00 ml water: according to Example 6; for kinetic solubility (mg of 5-methyl-(6S)-tetrahydrofolic acid per mL): purified/de-ionized water, room temperature, agitated one minute, expressed as 5-methyl-(6S)-tetrahydrofolic acid
Method: 42.3 mg of the anhydrous form of the crystalline salt of 5-methyl-(6S)-tetrahydrofolic acid and L-phenylalanine ethyl ester according to Example 4 was weighed into a 7 mL glass vial with a screw cap. 2.00 mL of purified/de-ionized water (for instance water for chromatography) was added to the solid using an adjustable volumetric pipette. The mixture was vigorously agitated at room temperature for one minute.
The solution was filtered by centrifugal filtration and 1.50 mL of the aqueous solution was transferred into a tared glass vial (about 10 mL volume). The water was evaporated in an air dryer at 40° C. for about 15 hours, then at 50° C. for about eight hours, subsequently drying was completed at 50° C. under vacuum (10 to 20 mbar) for about 13 hours. The solubility was determined by gravimetric evaluation of the solid residue.
2.00 mL of purified/de-ionized water (for instance water for chromatography) was added to the solid using an adjustable volumetric pipette. The mixture was vigorously agitated at room temperature for one minute. […] The suspension was filtered by centrifugal filtration and 1.50 mL of the aqueous solution was transferred into a tared glass vial (about 10 mL volume). The water was evaporated in an air dryer at 40° C. for about 15 hours, then at 50° C. for about eight hours, subsequently drying was completed at 50° C. under vacuum (10 to 20 mbar) for about 13 hours. The solubility was determined by gravimetric evaluation of the solid residue.

[2] = at 50% to 60% relative humidity; listed as crystalline salt of 5-methyl-(6S)-tetrahydrofolic acid and L-methionine ethyl es
[3] = at room temperature; calcium salt; cited from earlier work
[4] = Dynamic water vapor sorption (DVS) experiment; type: physicochemical; conditions: FIG. 3; for change of relative sample mass during DVS test: RH program 50→20→75→50%, 5% per hour; for change in water content: relative humidity range between 20% and 75%
Method: DVS measurements are typically performed with an SPS11-100n “Sorptions Prufsystem” from ProUmid (formerly “Projekt Messtechnik”), August-Nagel-Str. 23, 89079 Ulm (Germany).
22 mg of the salt of 5-methyl-(6S)-tetrahydrofolic acid with L-phenylalanine ethyl ester Form B according to Example 2 was weighed into an aluminum sample pan for DVS measurement. A DVS measurement was performed. For relative humidity (RH) scans, change rates of 5% per hour were used. The sample pan was placed into the instrument and a defined relative humidity change program was started according to the following steps: • (1) Maintained RH for 2 hours at 50%, then • (2) scanned RH from 50→20% at a rate of 5% per hour and maintained RH at 20% for 10 hours, then • (3) scanned RH from 20→75% at a rate of 5% per hour and maintained RH at 75% for 10 hours, then • (4) scanned RH from 75→50% RH at a rate of 5% per hour and maintained RH at 50% for two hours.

Compound: 5-methyl-(6S)-tetrahydrofolic acid L-methionine ethyl ester salt
- kinetic solubility expressed as 5-methyl-(6S)-tetrahydrofolic acid ([1]; at r.t., corresponds to mg/ml of 5-methyl-(6S)-tetrahydrofolic acid): greater than 18 mg/ml

Compound: 5-methyl-(6S)-tetrahydrofolic acid L-methionine ethyl ester salt [Example 7]
- water content [2]: below 1%

Compound: 5-methyl-(6S)-tetrahydrofolic acid L-methionine ethyl ester salt [Example 8]
- water content [2]: about 5%

Compound: 5-methyl-(6S)-tetrahydrofolic acid calcium salt [calcium salt (Form I)]
- aqueous solubility [3]: about 10 mg/ml

Compound: 5-methyl-(6S)-tetrahydrofolic acid calcium salt [calcium salt (Form III)]
- aqueous solubility [3]: about 2.5 mg/ml

Compound: CCOC(=O)[C@@H](N)Cc1ccccc1.CCOC(=O)[C@@H](N)Cc1ccccc1.CN1c2c([nH]c(N)nc2=O)NC[C@@H]1CNc1ccc(C(=O)N[C@@H](CCC(=O)O)C(=O)O)cc1 [5-methyl-(6S)-tetrahydrofolic acid L-phenylalanine ethyl ester 1:2 salt]
- change of relative sample mass during DVS test [4]: less than 0.3%
- change in water content [4]: less than 0.3%
- amount dissolved within one minute in 2.00 ml water [1]: 11.3 mg
- improvement of kinetic solubility versus calcium salt metastable Form I ([1]; versus the known (metastable Form I) of the calcium salt): about 50%

Compound: CN1c2c(nc(N)[nH]c2=O)NC[C@@H]1CNc1ccc(C(=O)N[C@@H](CCC(=O)O)C(=O)O)cc1 [5-methyl-(6S)-tetrahydrofolic acid calcium salt, reference compound]
- change of relative sample mass during DVS test [4]: about 3%
- change in water content [4]: about 3%
- amount dissolved within one minute in 2.00 ml water [1]: 9.0 mg
- kinetic solubility (mg of 5-methyl-(6S)-tetrahydrofolic acid per mL) [1]: 9.0 mg per mL
- solubility kinetic at 1 min ([1]; water, thermodynamic from solid): < 10000 µg/mL

Compound: CCOC(=O)[C@@H](N)Cc1ccccc1.CCOC(=O)[C@@H](N)Cc1ccccc1.CN1c2c([nH]c(N)nc2=O)NC[C@@H]1CNc1ccc(C(=O)N[C@@H](CCC(=O)O)C(=O)O)cc1 [Example 4, 5-methyl-(6S)-tetrahydrofolic acid L-phenylalanine ethyl ester 1:2 salt]
- kinetic solubility (mg of 5-methyl-(6S)-tetrahydrofolic acid per mL) [1]: 11.3 mg per mL
